# Measurements as given in paper PMC9736079, “ES-Screen: A Novel Electrostatics-Driven Method for Drug Discovery Virtual Screening” (International Journal of Molecular Sciences, 2022).
# How the values were obtained:
# [1] = target: T1, human adipocyte fatty acid-binding protein (FABP4) (Homo sapiens, UniProt P15090); assay: Surface Plasmon Resonance (SPR) binding assay, immobilized protein; details: for binding to immobilized FABP4 in SPR: 200, 100, 50, 25, 12 μM, triplicates
# T1 sequence (P15090 2-132): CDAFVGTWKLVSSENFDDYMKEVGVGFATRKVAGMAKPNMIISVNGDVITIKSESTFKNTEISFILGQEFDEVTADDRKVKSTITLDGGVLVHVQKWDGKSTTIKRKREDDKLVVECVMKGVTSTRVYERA
# Method: (§1) Briefly, mouse extracellular domain 1–2 (EC 1–2) C-terminally cysteine-tagged FABP4 and Aldose Reductase recombinant protein was immobilized on flow cell (FC) 2 in HEPES buffered saline (10 mM Hepes, pH 7.4, and 150 mM NaCl, 3 mM CaCl2) using a thiol-coupling kit according to the manufacturer’s protocol, resulting in immobilization levels of 4580 response units (RU). FC1 was only activated and inactivated and used as a reference. […] Each injection was repeated three times for 60 s. FC1 signals were deducted from FC2 for background noise elimination.
# [2] = target: human aldose reductase (AKR1B1) (Homo sapiens, UniProt P15121); assay: as above; details: for binding to immobilized AKR1B1 in SPR: 200, 100, 50, 25, 12 μM, triplicates
# Method: as §1
# JAK2 = target: T2, JAK2 (Homo sapiens, UniProt O60674); assay: Kinomescan active site-directed competition kinase binding assay; details: read-out: Percent Control at 10 µM (Lower Numbers Indicate Stronger Hits)
# T2 construct: purchased Discoverx (Kinomescan)
# T2 sequence (O60674 840-1132 limits assumed): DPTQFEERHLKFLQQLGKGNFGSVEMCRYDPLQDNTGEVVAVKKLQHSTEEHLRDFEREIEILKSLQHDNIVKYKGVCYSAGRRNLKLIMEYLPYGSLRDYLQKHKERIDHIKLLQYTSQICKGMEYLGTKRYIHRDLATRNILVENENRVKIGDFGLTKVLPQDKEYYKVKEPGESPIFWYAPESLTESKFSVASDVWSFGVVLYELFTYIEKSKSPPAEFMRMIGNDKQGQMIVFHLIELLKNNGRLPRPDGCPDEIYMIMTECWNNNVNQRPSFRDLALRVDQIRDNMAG
# Method: (§2) Kinase assays were performed using Kinomescan, by Discoverx, CA, USA and Caliper LabChip 3000 by Caliper Life sciences, USA as described by us previously. The determination of Mebendazole (MBZ) thermodynamic binding affinities (Kd) to kinase targets predicted by ES-Screen was performed by using active site-directed competition binding. Kinase-tagged T7 phage strains were grown in parallel in 24-well blocks in an E. coli host derived from the BL21 strain. E. coli bacteria were grown to log-phase and infected with T7 phage from a frozen stock (multiplicity of infection = 0.4) and incubated with shaking at 32 °C until lysis (90–150 min). The lysates were centrifuged (6000× g) and filtered (0.2 μm sieves) to remove cell debris. The remaining kinases were produced in HEK-293 cells and subsequently tagged with DNA for qPCR detection. […] The liganded beads were blocked with excess biotin and washed with blocking buffer (SeaBlock (Pierce), 1% BSA, 0.05% Tween 20, 1 mM DTT) to remove unbound ligands and to reduce non-specific phage binding. Binding reactions were assembled by combining kinases, control liganded affinity beads, and mebendazole in 1× binding buffer (20% SeaBlock, 0.17 × PBS, 0.05% Tween 20, 6 mM DTT). Mebendazole was prepared as 40× stocks in 100% DMSO and directly diluted into the assay. All reactions were performed in polypropylene 384-well plates in a final volume of 0.04 mL. The assay plates were incubated at room temperature with shaking for 1 h and the affinity beads were washed with wash buffer (1 × PBS, 0.05% Tween 20). […] The kinase concentration in the eluates was measured by qPCR. Ligands that bind the kinase active site and directly prevent kinase binding to the immobilized ligand will reduce the amount of kinase captured. […] The amount of kinase captured in test versus control samples were measured by using a quantitative, precise and ultra-sensitive qPCR method that detects the associated DNA label. Using the primary screen binding interactions are reported as ‘% Ctrl’ (Percent kinase remaining activity, Equation (8)), where lower numbers indicate stronger hits. (8) Percent Control (%Ctrl)=Mebendazole signal − Positive control signal/DMSO Negative control signal − Positive control signal × 100
# (§3) In a similar manner, binding constants (Kd) for mebendazole-kinase interactions are calculated by measuring the amount of kinase captured as a function of the mebendazole concentration in a dose response manner. […] Most Kds were determined using a starting concentration = 30,000 nM. […] Binding constants (Kd) were calculated with a standard dose–response curve (ligand dose (x-axis)—qPCR signal (y-axis)) using the Hill Equation (9), with the Hill Slope set to −1. […]
# MKNK2 = target: T3, MKNK2 (Homo sapiens, UniProt Q9HBH9); assay: as above; details: read-out: Percent Control at 10 µM (Lower Numbers Indicate Stronger Hits)
# T3 construct: purchased Discoverx (Kinomescan)
# T3 sequence (Q9HBH9 whole entry): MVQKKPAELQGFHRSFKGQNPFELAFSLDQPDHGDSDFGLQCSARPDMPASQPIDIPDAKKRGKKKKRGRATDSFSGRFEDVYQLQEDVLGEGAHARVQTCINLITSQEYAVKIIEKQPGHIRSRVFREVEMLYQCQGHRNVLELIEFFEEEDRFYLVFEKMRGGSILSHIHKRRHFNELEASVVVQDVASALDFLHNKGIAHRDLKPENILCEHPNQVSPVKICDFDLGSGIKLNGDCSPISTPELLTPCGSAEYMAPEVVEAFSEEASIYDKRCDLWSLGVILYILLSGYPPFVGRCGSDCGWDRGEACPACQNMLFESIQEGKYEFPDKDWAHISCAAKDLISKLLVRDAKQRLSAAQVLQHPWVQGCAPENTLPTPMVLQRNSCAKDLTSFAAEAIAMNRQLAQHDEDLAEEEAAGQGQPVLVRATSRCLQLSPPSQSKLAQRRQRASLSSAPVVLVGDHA
# Method: as §2, §3
# PIK3CG = target: T4, PIK3CG (Homo sapiens, UniProt P48736); assay: as above; details: read-out: Percent Control at 10 µM (Lower Numbers Indicate Stronger Hits)
# T4 construct: purchased Discoverx (Kinomescan)
# T4 sequence (P48736 whole entry): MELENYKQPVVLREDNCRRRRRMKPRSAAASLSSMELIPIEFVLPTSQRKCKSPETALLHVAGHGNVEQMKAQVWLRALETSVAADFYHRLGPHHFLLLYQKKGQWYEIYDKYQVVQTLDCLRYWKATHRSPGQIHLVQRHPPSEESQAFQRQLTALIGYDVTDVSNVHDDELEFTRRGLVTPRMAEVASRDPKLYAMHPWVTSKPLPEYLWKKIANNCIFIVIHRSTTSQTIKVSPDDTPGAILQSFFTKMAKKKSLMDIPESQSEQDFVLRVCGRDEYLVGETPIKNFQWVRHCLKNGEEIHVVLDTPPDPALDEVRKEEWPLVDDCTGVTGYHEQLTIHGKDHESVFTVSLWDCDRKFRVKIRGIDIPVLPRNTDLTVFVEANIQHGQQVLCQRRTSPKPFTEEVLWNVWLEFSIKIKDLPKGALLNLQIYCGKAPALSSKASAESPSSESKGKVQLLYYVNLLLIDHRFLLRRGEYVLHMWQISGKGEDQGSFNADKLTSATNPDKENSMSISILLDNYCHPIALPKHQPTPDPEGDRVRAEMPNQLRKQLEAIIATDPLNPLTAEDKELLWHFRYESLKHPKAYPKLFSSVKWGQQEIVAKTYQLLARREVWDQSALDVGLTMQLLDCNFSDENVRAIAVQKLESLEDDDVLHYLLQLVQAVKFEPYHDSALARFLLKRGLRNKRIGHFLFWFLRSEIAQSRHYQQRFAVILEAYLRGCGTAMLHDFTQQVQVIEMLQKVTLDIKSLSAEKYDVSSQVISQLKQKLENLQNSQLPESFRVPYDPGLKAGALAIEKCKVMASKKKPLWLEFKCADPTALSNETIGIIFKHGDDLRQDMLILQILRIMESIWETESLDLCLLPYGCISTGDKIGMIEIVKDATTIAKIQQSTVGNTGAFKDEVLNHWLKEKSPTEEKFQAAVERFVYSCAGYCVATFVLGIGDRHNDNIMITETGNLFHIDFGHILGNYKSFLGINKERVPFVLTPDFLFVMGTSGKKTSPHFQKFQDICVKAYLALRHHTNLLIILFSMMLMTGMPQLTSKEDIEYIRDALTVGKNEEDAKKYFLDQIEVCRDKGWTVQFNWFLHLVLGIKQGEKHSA
# Method: as §2, §3
# RAF1 = target: T5, RAF1 (Homo sapiens, UniProt P04049); assay: as above; details: read-out: Percent Control at 10 µM (Lower Numbers Indicate Stronger Hits)
# T5 construct: purchased Discoverx (Kinomescan)
# T5 sequence (P04049 whole entry): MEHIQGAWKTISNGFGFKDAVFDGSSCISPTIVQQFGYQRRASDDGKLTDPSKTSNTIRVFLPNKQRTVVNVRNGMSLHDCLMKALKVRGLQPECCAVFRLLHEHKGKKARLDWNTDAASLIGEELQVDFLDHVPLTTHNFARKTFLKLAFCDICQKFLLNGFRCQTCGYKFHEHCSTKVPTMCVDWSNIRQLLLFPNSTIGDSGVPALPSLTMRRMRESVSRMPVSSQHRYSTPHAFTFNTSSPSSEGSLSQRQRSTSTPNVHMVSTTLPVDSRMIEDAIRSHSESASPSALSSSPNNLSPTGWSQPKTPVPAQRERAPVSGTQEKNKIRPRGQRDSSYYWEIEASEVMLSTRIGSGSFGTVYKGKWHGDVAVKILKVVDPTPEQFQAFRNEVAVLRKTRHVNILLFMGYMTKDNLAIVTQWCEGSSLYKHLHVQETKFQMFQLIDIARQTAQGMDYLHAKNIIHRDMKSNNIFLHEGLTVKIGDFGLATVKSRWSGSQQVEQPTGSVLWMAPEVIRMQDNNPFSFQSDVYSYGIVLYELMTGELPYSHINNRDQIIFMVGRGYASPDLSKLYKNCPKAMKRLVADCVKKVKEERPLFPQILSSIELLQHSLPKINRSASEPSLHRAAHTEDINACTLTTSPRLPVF
# Method: as §2, §3
SMILES,binding to immobilized FABP4 in SPR [1],binding to immobilized AKR1B1 in SPR [2],percent of control kinase binding at 10 µM (JAK2),remaining binding at 10 µM (MKNK2),remaining binding at 10 µM (PIK3CG),remaining binding at 10 µM (RAF1),"Kd ([1]; SPR, FABP4, read-out: KD50)","Kd ([2]; SPR, AKR1B1, read-out: KD50)"
COc1ccc2c(c1)c(CC(=O)O)c(C)n2C(=O)c1ccc(Cl)cc1 [indomethacin],in a dose-dependent manner,in a dose-dependent manner,,,,,,
COC(=O)Nc1nc2ccc(C(=O)c3ccccc3)cc2[nH]1 [mebendazole],"bind directly, in a dose-dependent manner","bind directly, in a dose-dependent manner",39%,46%,18%,23%,8.4 µM,5.5 µM
CC1(C)Cc2c(-c3ccccc3)c(-c3ccc(Cl)cc3)c(CC(=O)O)n2C1 [licofelone],in a dose-dependent manner,in a dose-dependent manner,,,,,,
O=C(O)CCc1nc(-c2ccccc2)c(-c2ccccc2)o1 [oxaprozin],in a dose-dependent manner,in a dose-dependent manner,,,,,,
